Patent publication US9801376B2, “Synergistic pesticidal compositions and related methods” (Dow AgroSciences LLC, priority 2013, dated 2017)

Tests used:
Assay type in all cases: in vivo
[1] = system: diamondback moth, Plutella xylostella; assay: Diamondback moth bioassay on track-sprayed cabbage (Example 7); conditions: alone, dose rate 0.000078 weight %
Text: Three second-instar diamondback moth, Plutella xylostella, were infested onto each leaf disc.

[2] = system: brown stink bug, Euschistus heros; assay: Brown stink bug diet-treatment bioassay (Example 6); conditions: alone
[3] = system: Western plant bug, Lygus hesperus; assay: Western plant bug bean-piece dip bioassay (Examples 10 and 11)
Method: Bean pieces (about one inch-long) were used for the tests. Four bean pieces were placed in each tested active solution and left there for 10 minutes. Bean pieces were taken out of the active solution, and each piece was placed in a well in a 32-well tray and allowed to air dry. Three third-instar nymphs of Western plant bug, Lygus hesperus, were infested into each well.

[4] = system: Western flower thrips, Frankliniella occidentalis (Pergande); assay: Western flower thrips bioassay on treated first true cotton leaves (Example 5); conditions: alone
Method: Ten second instar larvae of the Western flower thrips, Frankliniella occidentalis (Pergande), were infested onto each leaf disc. […] The “Colby's Expected Action” was calculated using Colby's equation as discussed previously.

[5] = system: Western flower thrips, Frankliniella occidentalis; assay: Western flower thrips cotton leaf punch dip bioassay (Example 9); conditions: alone
Method: The active compounds were formulated in a 10% acetone solution with 0.025% non-ionic surfactant, TWEEN® 20. Cotton leaf punches were used for bioassays. Two cotton leaf punches were placed in each solution and left there for 10 minutes. Leaves were taken out of the solution, placed on a piece of filter paper in separated Petri dishes, and air dried. Each leaf disc was considered a repetition. Five nymph of Western flower thrips, Frankliniella occidentalis, were infested per repetition.

[6] = system: brown stink bug, Euschistus heros; assay: Brown stink bug bean-piece dip bioassay (Example 8); conditions: alone
Method: The active compounds were formulated in a 10% acetone solution with 0.025% non-ionic surfactant, TWEEN® 20. Bean pieces (about one inch-long) were used for the tests. Four bean pieces were placed in each tested active solution and left there for 10 minutes. Bean pieces were taken out of the active solution, and each piece was placed in a well in a 32-well tray and allowed to air dry. Three third-instar nymphs of brown stink bug, Euschistus heros, were infested into each well.
The active compounds formulated in a 10% acetone solution with 0.025% non-ionic surfactant, TWEEN® 20 were tested against brown stink bugs, Euschistus heros, according to the procedure described in example 8A.

| Structure (SMILES) | % Control Three Days After Treatment [1] | % Control Six Days After Treatment ([2]; dose rate 0.000039 weight %) | % Control Six Days After Treatment ([2]; dose rate 0.000078 weight %) | % Control Six Days After Treatment ([2]; dose rate 0.000156 weight %) | % Control Three Days After Treatment ([3]; acetamiprid alone, dose rate 0.005 weight %) | % Control Three Days After Treatment ([3]; acetamiprid alone, dose rate 0.02 weight %) | % Control Three Days After Treatment ([4]; dose rate 0.002 weight %) | % Control Three Days After Treatment ([4]; dose rate 0.02 weight %) | % Control Three Days After Treatment ([5]; dose rate 0.00002 weight %) | % Control Three Days After Treatment ([5]; dose rate 0.000078 weight %) | % Control Three Days After Treatment ([5]; dose rate 0.0003125 weight %) | % Control Three Days After Treatment ([5]; dose rate 0.00125 weight %) | % Control Three Days After Treatment ([5]; dose rate 0.005 weight %) | % Control Three Days After Treatment ([5]; dose rate 0.02 weight %) | % Control Three Days After Treatment ([3]; dinotefuran alone, dose rate 0.000078 weight %) | % Control Three Days After Treatment ([3]; dinotefuran alone, dose rate 0.00125 weight %) | % Control Three Days After Treatment ([3]; dinotefuran alone, dose rate 0.005 weight %) | % Control Three Days After Treatment ([3]; dinotefuran alone, dose rate 0.02 weight %) | % Control Four Days After Treatment ([6]; dose rate 0.0025 weight %) | % Control Four Days After Treatment ([6]; dose rate 0.01 weight %) |
| --- | --- | --- | --- | --- | --- | --- | --- | --- | --- | --- | --- | --- | --- | --- | --- | --- | --- | --- | --- | --- |
| C/C(=N\C#N)N(C)Cc1ccc(Cl)nc1 [Acetamiprid, (1E)-N-[(6-chloro-3-pyridyl)methyl]-N′-cyano-N-methyl acetamidine] | 4.17% | 0% | 0% | 9% | 0% | 33% | 30% | 60% | – | – | – | – | – | – | – | – | – | – | – | – |
| CN=C(NCC1CCOC1)N[N+](=O)[O-] (centres unmarked) [Dinotefuran, 2-methyl-1-nitro-3-[(tetrahydro-3-furanyl)methyl]guanidine] | – | – | – | – | – | – | – | – | 0% | 0% | 0% | 0% | 10% | 0% | 0% | 8% | 17% | 92% | 50% | 75% |
